According to patent US20240150377A1, “MODULATORS OF CYSTIC FIBROSIS TRANSMEMBRANE CONDUCTANCE REGULATOR” (VERTEX PHARMACEUTICALS INCORPORATED, priority 2020, published 2024):
Where two headings read alike, the source gives them in different places.

Biological target: CFTR (Homo sapiens, UniProt P13569)
Assay: Membrane potential dye, Enteroid Assay A
Format: cell-based
Conditions: for Ent. A Max Activity: chloride transport as % of triple combination control (Enteroid Assay A); for EC50: human enteroid cells, 18-24 hours, acute 10 μM forskolin and 300 nM ivacaftor, read-out: Ent. A EC50
In short: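 Human intestinal enteroids incubated 18-24 h at 37 °C with test compound, then loaded with 20 μM methyl oxonol (with CaCC inhibitors). Chloride transport triggered in chloride-free buffer with 10 μM forskolin, 100 μM IBMX, 300 nM Compound III; fluorescence read 15 min, expressed as % of a triple-combination corrector/potentiator control.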

Sequence of CFTR (P13569 with tags, fused parts or gaps DEL508-508): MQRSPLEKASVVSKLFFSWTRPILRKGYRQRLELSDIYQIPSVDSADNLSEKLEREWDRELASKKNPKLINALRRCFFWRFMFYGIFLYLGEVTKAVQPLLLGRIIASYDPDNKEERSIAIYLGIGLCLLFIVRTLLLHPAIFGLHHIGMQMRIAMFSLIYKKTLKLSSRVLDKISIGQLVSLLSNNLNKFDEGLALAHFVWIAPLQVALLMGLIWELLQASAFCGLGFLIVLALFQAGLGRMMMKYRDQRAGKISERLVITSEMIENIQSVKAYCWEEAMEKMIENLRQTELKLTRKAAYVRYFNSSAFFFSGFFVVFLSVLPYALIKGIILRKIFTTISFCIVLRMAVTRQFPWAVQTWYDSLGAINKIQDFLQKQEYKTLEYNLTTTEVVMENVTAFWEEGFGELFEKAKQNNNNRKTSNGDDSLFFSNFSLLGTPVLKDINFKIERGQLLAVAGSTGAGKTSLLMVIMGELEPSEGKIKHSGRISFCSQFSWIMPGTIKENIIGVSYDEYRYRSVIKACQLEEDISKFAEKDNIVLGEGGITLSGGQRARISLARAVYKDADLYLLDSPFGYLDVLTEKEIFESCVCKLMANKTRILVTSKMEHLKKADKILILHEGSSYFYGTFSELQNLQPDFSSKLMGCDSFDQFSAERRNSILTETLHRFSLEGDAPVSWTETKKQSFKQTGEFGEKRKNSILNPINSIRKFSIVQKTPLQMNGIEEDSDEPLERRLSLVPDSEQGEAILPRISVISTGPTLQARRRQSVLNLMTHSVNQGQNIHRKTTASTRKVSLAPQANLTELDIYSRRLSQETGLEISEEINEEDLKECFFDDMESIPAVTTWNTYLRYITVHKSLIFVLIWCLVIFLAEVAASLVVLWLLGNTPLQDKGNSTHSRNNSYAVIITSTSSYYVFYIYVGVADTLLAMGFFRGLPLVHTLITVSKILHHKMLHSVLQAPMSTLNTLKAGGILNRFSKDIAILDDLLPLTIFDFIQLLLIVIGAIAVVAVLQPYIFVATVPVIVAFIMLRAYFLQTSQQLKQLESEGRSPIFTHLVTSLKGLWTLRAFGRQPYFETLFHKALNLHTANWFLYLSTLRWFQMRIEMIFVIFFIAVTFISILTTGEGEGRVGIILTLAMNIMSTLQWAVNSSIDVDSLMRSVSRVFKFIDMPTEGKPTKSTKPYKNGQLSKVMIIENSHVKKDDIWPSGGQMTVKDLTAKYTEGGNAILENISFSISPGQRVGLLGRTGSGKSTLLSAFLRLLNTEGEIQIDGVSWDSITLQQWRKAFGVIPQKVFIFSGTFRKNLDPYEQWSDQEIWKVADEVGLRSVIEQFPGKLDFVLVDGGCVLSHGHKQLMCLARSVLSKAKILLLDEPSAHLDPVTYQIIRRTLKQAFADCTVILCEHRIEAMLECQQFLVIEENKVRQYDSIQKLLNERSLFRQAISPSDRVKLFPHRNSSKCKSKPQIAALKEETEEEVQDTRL

Ent. A Max Activity (Table 6) | EC50 (Table 6) [µM] | Ent. A Max Activity (Table 7) | EC50 (Table 7) [µM] | SMILES
 |  | ++ (++ is 30-60%) | < 1 | Cc1cccc(C)c1-c1cc2nc(n1)NS(=O)(=O)c1cccc(c1)C(=O)N(CCC1CCOCC1)[C@H](CC(F)(F)F)CO2 [Compound 983]
+++ (+++ is >60%) | < 1 |  |  | Cc1cccc(C)c1-c1cc2nc(n1)NS(=O)(=O)c1cccc(c1)C(=O)N(CC1CCOC1)[C@H](CC(C)C)CO2 (stereo partly shown) [Compound 357]
+++ (+++ is >60%) | < 1 |  |  | COc1ccccc1CN1C(=O)c2cccc(c2)S(=O)(=O)Nc2nc(cc(-c3c(C)cccc3C)n2)OC[C@H]1CC(C)C [Compound 349]
+ (+ is <30%) |  |  |  | Cc1cccc(C)c1-c1cc2nc(n1)NS(=O)(=O)c1cccc(c1)C(=O)N(C)C[C@H](CNCCC(C)(C)C)O2 [Compound 1017]
 |  | +++ (+++ is >60%) | < 1 | Cc1cccc(C)c1-c1cc2nc(n1)NS(=O)(=O)c1cccc(c1)C(=O)N(Cc1ccc(N3C[C@@H](O)[C@@H](O)C3)nc1)[C@H](CC(C)C)CO2 [Compound 953]
 |  | +++ (+++ is >60%) | 1 to 3 | CC[C@H](O)CNc1ccc(CN2C(=O)c3cccc(c3)S(=O)(=O)Nc3nc(cc(-c4c(C)cccc4C)n3)OC[C@H]2CC(C)C)cn1 [Compound 948]
+++ (+++ is >60%) | < 1 |  |  | Cc1cccc(C)c1-c1cc2nc(n1)NS(=O)(=O)c1cccc(c1)C(=O)N(Cc1ccc(N3CCCC3)cc1)[C@H](CC(C)C)CO2 [Compound 858]
+++ (+++ is >60%) | < 1 |  |  | Cc1cccc(C)c1-c1cc2nc(n1)NS(=O)(=O)c1cccc(c1)C(=O)N(C)CC(c1ccccc1)O2 (stereo not shown) [Compound 677]
 |  | +++ (+++ is >60%) | < 1 | Cc1cccc(C)c1-c1cc2nc(n1)NS(=O)(=O)c1cccc(c1)CN(Cc1cc(C)c3[nH]ncc3c1)[C@H](CC(C)C)CO2 [Compound 1027]
++ (++ is 30-60%) | < 1 |  |  | Cc1cccc(C)c1-c1cc2nc(n1)NS(=O)(=O)c1cccc(c1)C(=O)N(C)CC(c1ccc(C3CC3)cc1)O2 (stereo not shown) [Compound 674]
 |  | +++ (+++ is >60%) | < 1 | CCN(CCO)c1ccc(CN2C(=O)c3cccc(c3)S(=O)(=O)Nc3nc(cc(-c4c(C)cccc4C)n3)OC[C@H]2CC(C)C)cn1 [Compound 935]
++ (++ is 30-60%) | < 1 |  |  | Cc1cccc(C)c1-c1cc2nc(n1)NS(=O)(=O)c1cccc(c1)C(=O)N(CC(C)C)C[C@H](c1ccccc1)O2 [Compound 864]
 |  | +++ (+++ is >60%) | < 1 | CNC(=O)c1ccc(CN2C(=O)c3cccc(c3)S(=O)(=O)Nc3nc(cc(-c4c(C)cccc4C)n3)OC[C@H]2CC2(C(F)(F)F)CC2)cc1 [Compound 683]
 |  | +++ (+++ is >60%) | < 1 | Cc1cccc(C)c1-c1cc2nc(n1)NS(=O)(=O)c1cccc(c1)C(=O)N(Cc1ccc(N3CCC(C)(O)CC3)nc1)[C@H](CC(C)C)CO2 [Compound 939]
 |  | ++ (++ is 30-60%) | 1 to 3 | Cc1cccc(C)c1-c1cc2nc(n1)NS(=O)(=O)c1cccc(c1)CN(C(=O)Cc1ccccc1)[C@H](CC(C)C)CO2 [Compound 1051]
 |  | +++ (+++ is >60%) | < 1 | Cc1cccc(C)c1-c1cc2nc(n1)NS(=O)(=O)c1cccc(c1)C(=O)N(Cc1cccn(C)c1=O)[C@H](CC(C)C)CO2 [Compound 417]
 |  | +++ (+++ is >60%) | < 1 | Cc1cccc(C)c1-c1cc2nc(n1)NS(=O)(=O)c1cccc(c1)C(=O)N(C)C[C@H](c1ccc(-c3ccc(C(C)(C)C)cc3)cn1)O2 [Compound 510]
 |  | ++ (++ is 30-60%) | < 1 | Cc1cccc(C)c1-c1cc2nc(n1)NS(=O)(=O)c1cccc(c1)C(=O)N(Cc1ccc(N3CCC(C(F)(F)F)CC3)nc1)[C@H](CC(C)C)CO2 [Compound 969]

The remaining lines, values behind:

SMILES | Ent. A Max Activity (Table 6) | EC50 (Table 6) [µM] | Ent. A Max Activity (Table 7) | EC50 (Table 7) [µM]
Cc1cc(CN2C(=O)c3cccc(c3)S(=O)(=O)Nc3nc(cc(-c4c(C)cccc4C)n3)OC[C@H]2CC(C)C)[nH]n1 [Compound 430] | +++ (+++ is >60%) | < 1 |  | 
Cc1cccc(C)c1-c1cc2nc(n1)NS(=O)(=O)c1cccc(c1)C(=O)N(Cc1ccc(NCCO)nc1)[C@H](CC(C)C)CO2 [Compound 946] |  |  | +++ (+++ is >60%) | < 1
Cc1cccc(C)c1-c1cc2nc(n1)NS(=O)(=O)c1cccc(c1)CN(Cc1ccccc1-c1ccccc1)[C@H](CC(C)C)CO2 [Compound 1034] |  |  | ++ (++ is 30-60%) | < 1
Cc1cccc(C)c1-c1cc2nc(n1)NS(=O)(=O)c1cccc(c1)C(=O)N(Cc1ccn(C)n1)[C@H](CC(C)C)CO2 [Compound 855] | +++ (+++ is >60%) | < 1 |  | 
COCCN1Cc2cccc(c2)S(=O)(=O)Nc2nc(cc(-c3c(C)cccc3C)n2)OC[C@H]1CC(C)C [Compound 1042] |  |  | + + | < 1
COc1ccnc(CN2C(=O)c3cccc(c3)S(=O)(=O)Nc3nc(cc(-c4c(C)cccc4C)n3)OC[C@H]2CC(C)C)c1 [Compound 82, (11R)-6-(2,6-Dimethylphenyl)-11-isobutyl-12-[(4-methoxy-2-pyridyl)methyl]-2,2-dioxo-9-oxa-2λ^6-thia-3,5,12,19-tetrazatricyclo[12.3.1.14,8]nonadeca-1(18),4(19),5,7,14,16-hexaen-13-one] | +++ (+++ is >60%) | < 1 |  | 
Cc1cccc(C)c1-c1cc2nc(n1)NS(=O)(=O)c1cccc(c1)C(=O)N(Cc1ccc(N(C)CCN(C)C)nc1)[C@H](CC(C)C)CO2 [Compound 943] |  |  | +++ (+++ is >60%) | < 1
Cc1cccc(C)c1-c1cc2nc(n1)NS(=O)(=O)c1cccc(c1)C(=O)N(Cc1ccc(N3CCOCC3)nc1)[C@H](CC(C)C)CO2 [Compound 976] | +++ (+++ is >60%) | < 1 |  | 
Cc1cccc(C)c1-c1cc2nc(n1)NS(=O)(=O)c1cccc(c1)C(=O)N(CCN1CCOCC1)[C@H](CC(C)C)CO2 [Compound 1108] | +++ (+++ is >60%) | < 1 |  | 
Cc1cccc(C)c1-c1cc2nc(n1)NS(=O)(=O)c1cccc(c1)C(=O)N(CCOCc1ccccc1)[C@H](CC(C)C)CO2 [Compound 81, (11R)-12-[2-(Benzyloxy)ethyl]-6-(2,6-dimethylphenyl)-11-(2-methylpropyl)-9-oxa-2λ^6-thia-3,5,12,19-tetraazatricyclo[12.3.1.14,8]nonadeca-1(17),4,6,8(19),14(18),15-hexaene-2,2,13-trione] | +++ (+++ is >60%) | < 1 |  | 
Cc1cccc(C)c1-c1cc2nc(n1)NS(=O)(=O)c1cccc(c1)C(=O)N(C)CC(c1ccc(C3=CCN(C)CC3)cc1)O2 (stereo not shown) [Compound 676] | ++ (++ is 30-60%) | 3 to 30 |  | 
Cc1cccc(C)c1-c1cc2nc(n1)NS(=O)(=O)c1cccc(c1)C(=O)N(Cc1ccc(N3CCC3)nc1)[C@H](CC(C)C)CO2 [Compound 950] |  |  | +++ (+++ is >60%) | < 1
Cc1cccc(C)c1-c1cc2nc(n1)NS(=O)(=O)c1cccc(c1)C(=O)N(Cc1ccc(N3CCC(C#N)CC3)nc1)[C@H](CC(C)C)CO2 [Compound 972] |  |  | +++ (+++ is >60%) | < 1
